Source: ChEMBL document CHEMBL1136202, “Imidazo[1,2-a]pyridines: a potent and selective class of cyclin-dependent kinase inhibitors identified through structure-based hybridisation” (Bioorg Med Chem Lett, 2003)

Key:
[1] = biological target: Cyclin-dependent kinase 4 (Homo sapiens, UniProt P11802); assay: Inhibition of Cyclin-dependent kinase 4
[2] = biological target: Cyclin-dependent kinase 2 (Homo sapiens, UniProt P24941); assay: Inhibition of Cyclin-dependent kinase 2

Sequence of Cyclin-dependent kinase 4 (P11802 whole entry): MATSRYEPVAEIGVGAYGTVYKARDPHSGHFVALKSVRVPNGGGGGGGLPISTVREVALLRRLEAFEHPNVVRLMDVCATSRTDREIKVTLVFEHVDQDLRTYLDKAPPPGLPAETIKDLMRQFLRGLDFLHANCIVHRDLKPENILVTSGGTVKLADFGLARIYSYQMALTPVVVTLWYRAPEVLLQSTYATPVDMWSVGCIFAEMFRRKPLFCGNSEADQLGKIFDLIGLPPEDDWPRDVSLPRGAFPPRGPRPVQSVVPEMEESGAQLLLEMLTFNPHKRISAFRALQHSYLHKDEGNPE

Row | IC50 [1] [µM] | IC50 [2] [µM] | SMILES
1 | 8 | 4 | Cc1nc2ccccn2c1-c1ccnc(N)n1
2 | 0.15 |  | Cc1nc2ccccn2c1-c1ccnc(Nc2ccc(OCC(O)CN(C)C)cc2)n1 (stereo unspecified)
3 | 2.7 | 0.006 | Cc1ccc(F)c(Nc2ccnc(Nc3ccc(S(N)(=O)=O)cc3)n2)c1
4 | > 10 | > 10 | Cc1nc2ccccn2c1-c1ccnc(NC(=O)Nc2ccccc2)n1
5 | 2.5 | < 0.003 | Cc1nc2ccccn2c1-c1ccnc(Nc2ccc(S(N)(=O)=O)cc2)n1

The remaining lines, values behind:

Row | SMILES | IC50 [1] [µM] | IC50 [2] [µM]
6 | CN(C)CC(O)COc1ccc(Nc2nccc(Nc3ccccc3)n2)cc1 (stereo unspecified) |  | 32
7 | Cc1nc2ccccn2c1-c1ccnc(NC(=O)C(F)(F)F)n1 | 40 | 95
8 | Cc1nc2ccccn2c1-c1ccnc(Nc2ccccc2)n1 | 3.6 | 0.036
9 | CC(=O)Nc1nccc(-c2c(C)nc3ccccn23)n1 | 8.9 | 2.9
